Laboratory results: patent publication US20250099433A1, “COMPOSITION AND METHOD FOR TREATMENT OF GRAM NEGATIVE BACTERIAL INFECTION” (The Research Foundation for the State University of New York, priority 2021, published 2025)
Values after ≈ are worked out from the molar mass of the structure shown. Values joined by “and” are separate entries in the source; they are usually repeats but may differ in a detail not shown here. Equal entries are not always repeated. “Also recorded” adds a separate entry of the source. Where two headings read alike, the source gives them in different places.

Tests used:
[1] = tested on: wild-type E. coli (K12 MG1655); test: PAE in wild-type E. coli in the presence of sub-MIC azithromycin; format: cell-based, Escherichia coli; conditions: 16xMIC, 37° C.
Source text: FIG. 6. Post-antibiotic effect in the presence of sub-MIC azithromycin.
The PAE measurements were repeated for wild-type E. coli in the presence of sub-MIC levels of the protein synthesis inhibitor azithromycin.

[2] = tested on: wild-type E. coli (K-12 MG1655); test: Post-antibiotic effect (PAE) in wild-type E. coli; format: cell-based, Escherichia coli; conditions: for PAE (h) 4x, Wild-type: 4xMIC for 1 h; for PAE (h) 4x, Wild-type / PAE (h) 16x, Wild-type: 1:1000 dilution; for PAE (h) 16x, Wild-type: 16xMIC for 1 h; for PAE in wild-type E. coli: MIC multiple not stated or 4x and 16xMIC
Source text: FIG. 4. Post-antibiotic effect of the ecLpxC inhibitors on wild-type and FabZ* E. coli. […] PAE data for wild-type E. coli are in panels (a) PT805, (c) PT810 and (e) CHIR-090, and for FabZ* E. coli in (b) PT805, (d) PT810 and (f) CHIR-090.
PAE data for wild-type E. coli are in panels (a) PT805, (c) PT810 and (e) CHIR-090, and for FabZ* E. coli in (b) PT805, (d) PT810 and (f) CHIR-090.

[3] = tested on: FabZ*, hyperactive FabZ strain (L85P); test: microbe, parasite or virus in culture; format: cell-based, Escherichia coli; conditions: for MIC: Escherichia coli, read-out: MIC (μM) FabZ*
FabZ* E. coli = format: cell-based, Escherichia coli; conditions: for PAE (h) 4x, FabZ*: 4xMIC for 1 h; for PAE (h) 4x, FabZ* / PAE (h) 16x, FabZ*: 1:1000 dilution; for PAE (h) 16x, FabZ*: 16xMIC for 1 h; for PAE in FabZ* E. coli: MIC multiple not stated or 1x-16xMIC
Source text: FIG. 4. Post-antibiotic effect of the ecLpxC inhibitors on wild-type and FabZ* E. coli.
This included use of an E. coli strain (FabZ*) containing a hyperactive mutant of the fatty acid biosynthesis O-hydroxyacyl-ACP enzyme (FabZ), and determination of PAEs for wild-type E. coli in the presence of sub-MIC concentrations of macrolides.

[4] = tested on: E. coli strain (K-12, MG1655); test: MIC by microbroth dilution, wild-type E. coli; format: cell-based, Escherichia coli; conditions: wild-type E. coli K-12 MG1655
P. aeruginosa PAO1 [5] = test: Post-antibiotic effect (PAE) in P. aeruginosa PAO1; conditions: 37° C.; for PAE (h) 4x: PAO1, 4xMIC for 1 h; for PAE (h) 8x: PAO1, 8xMIC for 1 h; for PAE (h) 16x: PAO1, 16xMIC for 1 h
Protocol: Post-antibiotic effect of the paLpxC inhibitors on wild-type P. aeruginosa. […] The experimental data points are the mean values from triplicate, independent measurements, and the error bars represent the standard deviation from the mean.
After incubating the plates overnight at 37° C., CFUs were enumerated, and the PAE values were calculated using a standard method where the time for the bacteria to recover 1 log post drug washout compared to the control was determined (FIG. 17, Table 6).
Post-antibiotic Effect (PAE). PAEs were determined using P. aeruginosa PAO1. […] The compound was washed out by diluting the culture 1000-fold into fresh CAMH-II medium, and the regrowth of bacteria was monitored by taking 100 μL aliquots each hour and plating serial dilutions on Muller-Hinton agar plates.

P. aeruginosa PAO1 [6] = test: Time-kill assays in P. aeruginosa PAO1; conditions: PAO1, 4x, 8x and 16xMIC, CAMH media, 37° C.
Protocol: Time-kill assays. […] The experimental data points are the mean values from triplicate, independent measurements, and the error bars represent the standard deviation from the mean.
Time-Kill Assays. […] Cultures were shaken at 37° C. for 6 h, and 100 μL aliquots were taken at each 1 h time interval and plated in serial dilutions in a Mueller-Hinton agar plate.

P. aeruginosa PAO1 [7] = test: MIC by microbroth dilution, P. aeruginosa PAO1; conditions: Pseudomonas aeruginosa, PAO1, read-out: MIC (μM) (PAO1)
[8] = tested on: efflux-pump mutant strain (ΔMexABCDXY) (paEP); test: MIC by microbroth dilution, efflux-pump mutant P. aeruginosa; conditions: Pseudomonas aeruginosa, read-out: MIC (μM) (paEP)
Source text: Bacterial Strains. […] The efflux-pump deficient P. aeruginosa strain (ΔMexABCDXY), N150, was derived from PAO1.
Minimum Inhibitory Concentration (MIC) Measurements.

paLpxC [9] = biological target: T1, paLpxC (Pseudomonas aeruginosa (strain ATCC 15692 / DSM 22644 / CIP 104116 / JCM 14847 / LMG 12228 / 1C / PRS 101 / PAO1), UniProt P47205); test: biochemical; format: binding; conditions: for Ki / tR (min) Fluorescence assay: 37° C.; for Ki: fluorescence competition; for tR (min) Fluorescence assay: tR = 1/koff; for koff: read-out: Koff (s^−1); for kon: read-out: Kon (μM^−1s^−1)
T1 sequence (P47205 1-299): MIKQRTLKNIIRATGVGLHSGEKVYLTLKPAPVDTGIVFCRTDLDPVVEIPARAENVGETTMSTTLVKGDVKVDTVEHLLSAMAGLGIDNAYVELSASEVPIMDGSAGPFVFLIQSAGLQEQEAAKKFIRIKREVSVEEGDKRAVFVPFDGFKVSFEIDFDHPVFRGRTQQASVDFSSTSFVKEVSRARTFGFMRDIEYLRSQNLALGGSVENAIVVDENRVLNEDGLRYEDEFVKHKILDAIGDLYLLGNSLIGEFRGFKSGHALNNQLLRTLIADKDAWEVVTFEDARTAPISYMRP

paLpxC [10] = biological target: T1, paLpxC; test: Spin column (Penefsky) residence time assay on paLpxC; format: binding; conditions: 37° C.; for tR (min) (Spin column assay): direct displacement; for k (min^−1), spin-column assay: first-order fit
Protocol: FIG. 14. Spin-column assay. A spin-column assay was used to quantify the residence time of inhibitors on paLpxC at 37° C. […] Samples were then subjected to size exclusion chromatography at different times using a Spin-Trap G-25 column (800×g for 2 min). […] Preincubated solutions of enzyme (10 μM) and inhibitor (10 or 20 μM) were diluted 200-fold into a solution of PT855 (1 μM) at 37° C. Aliquots of this solution were withdrawn at various times and subjected to centrifugal gel filtration chromatography using PD SpinTrap™ G-25 columns. The fluorescence of the eluate was quantified, and the data were fit to a single exponential equation to obtain koff (FIG. 14, Tables 4 and 5).
Inhibitor Residence Time Measurements using a Spin Column Assay. […] Subsequently, 10 μL of the incubation mixture was diluted into 2 mL of the same buffer containing 1 μM of PT855, and 100 μL of this mixture was then aliquoted at different time points and loaded onto a PD SpinTrap™ G-25 column (Cytiva) that had been equilibrated with buffer prior to sample loading. […] The fluorescence intensities corresponding to loading diluted EI without the fluorescent competitor and loading the competitor alone were measured separately to determine the dynamic range and endpoint of the assay. […] Rates were calculated by fitting the change in fluorescence intensity over time to a one-phase association equation in GraphPad Prism.

wild-type E. coli = test: MIC of azithromycin after pre-exposure of wild-type E. coli to 16xMIC inhibitor; format: cell-based, Escherichia coli; conditions: for MIC: Escherichia coli

Compound	PAE (h) 4x, Wild-type [2]	PAE (h) 16x, Wild-type [2]	PAE in wild-type E. coli [2]	PAE (h) 4x, FabZ* (FabZ* E. coli)	PAE (h) 16x, FabZ* (FabZ* E. coli)	PAE in FabZ* E. coli (FabZ* E. coli)	PAE (h) 4x (P. aeruginosa PAO1 [5])	PAE (h) 8x (P. aeruginosa PAO1 [5])	PAE (h) 16x (P. aeruginosa PAO1 [5])	reduction of the starting log CFU/mL of the bacterial culture (P. aeruginosa PAO1 [6])	MIC (P. aeruginosa PAO1 [7])	MIC [8]	Ki (paLpxC [9])	tR (min) Fluorescence assay (paLpxC [9])	koff (paLpxC [9])	kon (paLpxC [9])	tR (min) (Spin column assay) (paLpxC [10])	further results
Cn1nnnc1SCC1=C(C(=O)O)N2C(=O)[C@@H](NC(=O)[C@H](O)c3ccccc3)[C@H]2SC1 [Cefamandole]	0 h	0 h	failed to generate a PAE; also recorded: neither cefamandole nor trimethoprim showed a PAE	0 h	0 h	failed to generate a PAE; also recorded: neither cefamandole nor trimethoprim showed a PAE	–	–	–	–	–	–	–	–	–	–	–	PAE (h) (sub-MIC AZ) 16x(0.2) ([1]; then media with 0.2xMIC azithromycin): 0 h; PAE (h) (sub-MIC AZ) 16x(0.4) ([1]; then media with 0.4xMIC azithromycin): 0 h; MIC (μM) FabZ* ([3]; hyperactive FabZ strain (L85P)): 1.6 µM (≈ 0.74 µg/mL); MIC [4]: 6.25 µM (≈ 2.89 µg/mL)
CC(CCn1ccc(-c2ccccc2)cc1=O)(C(=O)NO)S(C)(=O)=O (racemic) [PT901, N-hydroxy-2-methyl-2-(methylsulfonyl)-4-(2-oxo-4-phenylpyridin-1(2H)-yl)butanamide]	–	–	–	–	–	–	0.7 h and 0.7 ± 0.1 h	1.1 ± 0.1 h	1.3 ± 0.1 h	more than 3 logs	3.12 µM (≈ 1.14 µg/mL)	0.2 µM (≈ 0.0729 µg/mL)	–	–	–	–	–	–
CC(CCn1ccc(-c2ccc(-c3cn(CC4CC4)nn3)cc2)cc1=O)(C(=O)NO)S(C)(=O)=O (racemic) [PT908, 4-(4-(4-(1-(cyclopropylmethyl)-1H-1,2,3-triazol-4-yl)phenyl)-2-oxopyridin-1(2H)-yl)-N-hydroxy-2-methyl-2-(methylsulfonyl)butanamide]	–	–	–	–	–	–	1.6 ± 0.1 h	2.2 ± 0.1 h	3.1 ± 0.1 h	more than 3 logs	3.12 µM (≈ 1.52 µg/mL)	0.4 µM (≈ 0.194 µg/mL)	0.0102 ± 0.0043 nM	66.9 ± 8.6 min and 67.0 ± 8.6 min	0.00025 ± 3e-05 s⁻¹	26.4 ± 6.3 µM⁻¹ s⁻¹	190.6 ± 92.0 min	–
C=CCn1cc(-c2ccc(-c3ccn(CCC(C)(C(=O)NO)S(C)(=O)=O)c(=O)c3)cc2)nn1 (racemic) [PT907, 4-(4-(4-(1-allyl-1H-1,2,3-triazol-4-yl)phenyl)-2-oxopyridin-1(2H)-yl)-N-hydroxy-2-methyl-2-(methylsulfonyl)butanamide]	–	–	–	–	–	–	–	–	–	–	12.5 µM (≈ 5.89 µg/mL)	0.78 µM (≈ 0.368 µg/mL)	0.0061 ± 0.0057 nM	82.8 ± 26.0 min	0.00022 ± 7e-05 s⁻¹	52 ± 29.5 µM⁻¹ s⁻¹	146.5 ± 44.0 min	k (min^−1), spin-column assay (paLpxC [10]): 0.007 ± 0.002 min⁻¹
CC[C@H]1OC(=O)[C@H](C)[C@@H](O[C@H]2C[C@@](C)(OC)[C@@H](O)[C@H](C)O2)[C@H](C)[C@@H](O[C@@H]2O[C@H](C)C[C@H](N(C)C)[C@H]2O)[C@](C)(O)C[C@@H](C)C(=O)[C@H](C)[C@@H](O)[C@]1(C)O [Erythromycin]	0.7 ± 0.1 h	1.4 ± 0.4 h	0.8 ± 0.05 h and 0.7 to 1.4 h	0.8 ± 0.2 h	1.5 ± 0.4 h	0.8 ± 0.05 h and 0.7 to 1.4 h	–	–	–	–	–	–	–	–	–	–	–	MIC [3]: 6.25 µM (≈ 4.59 µg/mL); MIC ([4]; Escherichia coli): 50 µM (≈ 36.7 µg/mL)
COc1ccc(-c2ccc(CNC3(C(=O)NO)CCS(=O)(=O)CC3)cc2)c(F)c1 [PT920, 4-(((2′-fluoro-4′-methoxy-[1,1′-biphenyl]-4-yl)methyl)amino)-N-hydroxytetrahydro-2H-thiopyran-4-carboxamide 1,1-dioxide]	–	–	–	–	–	–	1.0 ± 0.1 h	1.3 ± 0.2 h	1.7 ± 0.2 h	more than 3 logs	0.4 µM (≈ 0.169 µg/mL)	0.03 µM (≈ 0.0127 µg/mL)	0.0379 ± 0.024 nM	32.0 ± 4.8 min	0.00053 ± 7e-05 s⁻¹	16.6 ± 8.5 µM⁻¹ s⁻¹	79 ± 24 min and 79.0 ± 24.0 min	k (min^−1), spin-column assay (paLpxC [10]): 0.013 ± 0.004 min⁻¹
COc1cc(Cc2cnc(N)nc2N)cc(OC)c1OC [Trimethoprim]	0 h	0 h	failed to generate a PAE; also recorded: neither cefamandole nor trimethoprim showed a PAE	0 h	0 h	failed to generate a PAE; also recorded: neither cefamandole nor trimethoprim showed a PAE	–	–	–	–	–	–	–	–	–	–	–	MIC [3]: 2.5 µM (≈ 0.726 µg/mL); MIC ([4]; Escherichia coli): 2.5 µM (≈ 0.726 µg/mL)
CC[C@H]1OC(=O)[C@H](C)[C@@H](O[C@H]2C[C@@](C)(OC)[C@@H](O)[C@H](C)O2)[C@H](C)[C@@H](O[C@@H]2O[C@H](C)C[C@H](N(C)C)[C@H]2O)[C@](C)(O)C[C@@H](C)CN(C)[C@H](C)[C@@H](O)[C@]1(C)O [azithromycin]	–	–	–	–	–	–	–	–	–	–	–	–	–	–	–	–	–	MIC (wild-type E. coli; bacteria pre-exposed to 16xMIC ecLpxC inhibitor, read-out: MIC of azithromycin after pre-exposure to ecLpxC inhibitor): 3.25 µM; MIC (wild-type E. coli; no pre-exposure, read-out: MIC of azithromycin, control): 12 µM; MIC of azithromycin after pre-exposure to cefamandole (wild-type E. coli; bacteria pre-exposed to 16x cefamandole): 6.2 µM; fold decrease of azithromycin MIC after ecLpxC inhibitors (wild-type E. coli; pre-treatment with 16xMIC ecLpxC inhibitors): 4 fold; fold decrease of azithromycin MIC after cefamandole (wild-type E. coli; pre-treatment with cefamandole): 2 fold
